According to ChEMBL document CHEMBL1157918, “The development and SAR of pyrrolidine carboxamide 11beta-HSD1 inhibitors” (Bioorg Med Chem Lett, 2010):

How the values were obtained:
in vitro = conditions: human, liver microsomes
Description: Intrinsic clearance in human liver microsomes

Mus musculus [1] = organism: Mus musculus; assay: animal or person; conditions: C57BL, Plasma, po, read-out: INH
Description: Inhibition of 11-beta-HSD1 in C57BL mouse assessed as reduction of plasma cortisol level at 1 mg/kg, po administered 30 mins before cortisone challenge measured after 60 mins by ELISA relative to control

Mus musculus [2] = organism: Mus musculus; assay: animal or person; conditions: C57BL, Plasma, po, read-out: INH; remark: listed apart in the source
Description: Inhibition of 11-beta-HSD1 in C57BL mouse assessed as reduction of plasma cortisol level at 3 mg/kg, po administered 30 mins before cortisone challenge measured after 60 mins by ELISA relative to control

Mus musculus [3] = organism: Mus musculus; assay: animal or person; conditions: C57BL, Plasma, po, read-out: INH; remark: listed apart in the source
Description: Inhibition of 11-beta-HSD1 in C57BL mouse assessed as reduction of plasma cortisol level at 10 mg/kg, po administered 30 mins before cortisone challenge measured after 60 mins by ELISA relative to control

Mus musculus [4] = organism: Mus musculus; assay: animal or person; conditions: C57BL, Plasma, po, read-out: INH; remark: listed apart in the source
Description: Inhibition of 11-beta-HSD1 in C57BL mouse assessed as reduction of plasma cortisol level at 30 mg/kg, po administered 30 mins before cortisone challenge measured after 60 mins by ELISA relative to control

Mus musculus [5] = organism: Mus musculus; assay: animal or person; conditions: C57BL, Plasma, po, read-out: INH; remark: listed apart in the source
Description: Inhibition of 11-beta-HSD1 in C57BL mouse assessed as reduction of plasma cortisol level at 100 mg/kg, po administered 30 mins before cortisone challenge measured after 60 mins by ELISA relative to control

Structure (SMILES) | CLint scaled (in vitro) | also measured
O=C(NC1C2CC3CC(C2)CC1C3)[C@H]1CCCN1c1ccccn1 (some centres not stated) | 79.2 mL/min/kg | –
O=C(NC1C2CC3CC(C2)CC1C3)[C@H]1CCCN1CC1CCCCC1 (some centres not stated) | 62.8 mL/min/kg | –
O=C(NC1C2CC3CC(C2)CC1C3)[C@H]1CCCN1CC1CCOCC1 (some centres not stated) | 20.3 mL/min/kg | –
O=C(NC1C2CC3CC(C2)CC1C3)[C@H]1CCCN1CC1(O)CCCCC1 (some centres not stated) | 64.6 mL/min/kg | –
N#Cc1ccc(CN2CCC[C@@H]2C(=O)NC2C3CC4CC(C3)CC2C4)cc1 (some centres not stated) | 73.2 mL/min/kg | –
O=C(NC1C2CC3CC(C2)CC1C3)[C@H]1CCCN1CC1(O)CCCC1 (some centres not stated) | 86.2 mL/min/kg | –

Second part, led by results:

CLint scaled (in vitro) | Structure (SMILES) | also measured
85.8 mL/min/kg | O=C(NC1C2CC3CC(C2)CC1C3)[C@H]1CCCN1CC1CCC1 (some centres not stated) | –
93.3 mL/min/kg | CCCN1CCC[C@@H]1C(=O)NC1C2CC3CC(C2)CC1C3 (some centres not stated) | –
79.3 mL/min/kg | CC(C)CN1CCC[C@@H]1C(=O)NC1C2CC3CC(C2)CC1C3 (some centres not stated) | –
75.3 mL/min/kg | O=C(NC1C2CC3CC(C2)CC1C3)[C@H]1CCCN1CC1CCCC1 (some centres not stated) | –
22.2 mL/min/kg | CN1CCC[C@@H]1C(=O)NC1C2CC3CC(C2)CC1C3 (some centres not stated) | –
43.9 mL/min/kg | CCN1CCC[C@@H]1C(=O)NC1C2CC3CC(C2)CC1C3 (some centres not stated) | inhibition in vivo at 1 mg/kg (Mus musculus [1]): 52%; inhibition in vivo at 3 mg/kg (Mus musculus [2]): 46%; inhibition in vivo at 10 mg/kg (Mus musculus [3]): 23%; inhibition in vivo at 30 mg/kg (Mus musculus [4]): 20%; inhibition in vivo at 100 mg/kg (Mus musculus [5]): 18%
